According to patent US11155740B2, “Shale hydration inhibitor and method of use” (M-I L.L.C., priority 2014, dated 2021):

Assay: OECD 306 marine biodegradation
Excerpt: In the following example, additive formulations were studied for biodegradability in order to quantify the suitability of the formulations for use in environmentally sensitive areas. One measure of sample toxicity is marine biodegradation data as outlined in Organization for Economic Cooperation and Development, Procedure OECD 306 or BODIS. Under OECD 306, the rules that governing offshore chemical use set forth three tests: bioaccumulation, biodegradation and toxicity. In order for a chemical to be used without restriction offshore in the North Sea it must satisfy two of the following three criteria: (1) biodegradation must be greater than 60%, if less than 20% it is automatically marked for substitution; (2) bioaccumulation as measured by octanol/water partitioning coefficient (log Po/w) must be below 3 (or have a molecular weight >700); and toxicity to the most sensitive marine species (often Skeletonema) must be greater than LC50 or EC50 of 10 ppm.
During the biodegradation testing, samples were formulated as show below in Table 4, where polyetheramine is a diamino-functionalized JEFFAMINE™.
Samples were then subjected to biodegradation and results were tabulated as shown below in Table 5. Comparative samples of sodium benzoate and ULTRAHIB™ PLUS, an amine-based shale inhibitor commercially available from M-I L.L.C., were also assayed.

O=C([O-])c1ccccc1.[Na+] [Sodium benzoate]
OECD 306 Biodegradation Day 7 (Day 7): 64% | OECD 306 Biodegradation Day 14 (Day 14): 71% | OECD 306 Biodegradation Day 21 (Day 21): 76% | OECD 306 Biodegradation Day 28 (Day 28): 78%
